Here are results for 12 compounds from patent US20020193425A1, “Cancer chemopreventative compounds and compositions and methods of treating cancers” (priority 2001, published 2002).

Read-outs that look alike come from different tables or passages of the source.

The subject of data set [1] is HL-60 (human promyelocytic) cells. The experiment in a line: HL-60 cell differentiation of quassinoids, NBT reduction. Format: cell-based. The protocol:
(§1) Induction of differentiation was determined by the ability of treated cells to produce superoxide anions (nitroblue tetrazolium (NBT)-reduction), a functional marker of mature macrophages or granulocytes. Proliferation capacity is equivalent to cell growth and was measured by incorporation of [3H]thymidine into DNA over a period of 18 h, and cytotoxic activity was evaluated by the loss of membrane integrity as shown by trypan blue exclusion. […] Although members of the brusatol and glaucarubolone series were active, when comparing members of both series that varied only in the positioning of the epoxymethano bridge, great differences were noted, as shown with yadianzolide C (5) and glaucarubolone (24), and analogues 4 (brusatol series) and 32 (glaucarubolone series).
(§2) HL-60 (human promyelocytic) cells were tested using a 4-day incubation protocol. In brief, cells in log phase (approximately 10^6 cells/mL) were diluted to […] and preincubated overnight (18 h) in 24-well plates to allow cell-growth recovery. Then, samples dissolved in DMSO were added, keeping the final DMSO concentration at 0.1% (v/v). Control cultures were treated with the same concentration of DMSO. After 4 days of incubation, the cells were analyzed to determine the percentage of cells undergoing maturation as determined by NBT reduction. Concomitantly, the effect on viability and proliferation of HL-60 cells was determined. In each experiment, 1α, 25-dihydroxyvitamin D3 (EC50=0.01 μM) and brusatol (EC50=0.07 μM) were used as reference controls. EC50 and IC50 values were calculated using 5-7 test concentrations (in duplicate), and consistent results were obtained, indicating the data reported for the related quassinoids are reliable.
(1) Nitroblue Tetrazolium (NBT) Reduction. Evaluation of NBT reduction was used to assess the ability of sample-treated HL-60 cells to produce superoxide when challenged with 12-O-tetradecanoylphorbol 13-acetate (TPA). A 1:1 v/v) mixture of a cell suspension (10^6 cells) and TPA/NBT solution (2 mg/mL NBT and 1 μg/mL TPA in phosphate buffered solution) was incubated for 1 h at 37° C. Positive cells reduce NBT yielding intracellular black-blue formazan deposits, which were quantified by microscopic examination of >200 cells. Results were expressed as a percentage of positive cells.

Data set [2] concerns human promyelocytic leukemia (HL-60) cells. The conditions noted are these: cited from earlier work.
A short description of data set [3]: HL-60 cytotoxicity of quassinoids, trypan blue exclusion. Format: cell-based, human. The conditions noted are these: human, HL-60 cells; HL-60; 4-day incubation; trypan blue exclusion; read-out: cytotoxicity (IC50). The protocol: as §1, §2
(§3) (2) Cytotoxicity. Since loss of membrane integrity is an early feature of necrotic cells and a late feature of apoptotic cells, trypan blue, a […] blue dye, was used to stain cells with compromised plasma membranes, while leaving intact cells unstained. Cells […] of trypan blue (0.2% w/v in PBS), incubated for at least 5 min at room temperature, and counted using a hematocytometer. Viability percentages were calculated with duplicate samples.

In data set [4] the test system is HL-60 (human promyelocytic) cells. The experiment in a line: HL-60 cell proliferation assay of quassinoids, [3H]thymidine incorporation. Format: cell-based. The conditions noted are these: for IC50: 4-day incubation, [3H]thymidine incorporation, read-out: inhibition of proliferation (IC50). On the procedure:
as §1, §2
(3) Cell Proliferation Assay. […] Cells were then collected on glass fiber filters (90×120 mm; Wallac, Turku, Finland) using a TOMTEC Harvester 96®.

Data set [5] shares this test system. The experiment in a line: HL-60 cytotoxicity of quassinoids, trypan blue exclusion. The conditions noted are these: HL-60; 4-day incubation; trypan blue exclusion. Format: cell-based. The protocol: as §1, §2, §3
The subject of data set [6] is DMBA-induced preneoplastic lesion formation in mouse mammary organ culture. Briefly: Inhibition of DMBA-induced preneoplastic lesion formation in mouse mammary organ culture (MMOC). Format: cell-based. Conditions: for % inhibition of DMBA-induced preneoplastic lesion formation: quassinoid (2 μM), in comparison with a DMBA control. On the procedure:
The identification of potential inhibitors of DMBA-induced preneoplastic lesion formation in mammary organ culture has been described previously. Briefly, four-week old BALB/c female mice (Charles River) were pretreated for nine days with 1 μg estradiol and 1 mg progesterone. The thoracic pair of mammary glands was dissected on silk and incubated with growth-promoting hormones in the presence of test compounds (2 μM) for 10 days. DMBA ([…]) was included in the medium (containing […]) for 24 hours on the third day of culture to induce preneoplastic mammary lesions. Following 10 days of growth promoting phase, all hormones except insulin were withdrawn and the glands were allowed to regress to lobuloalveolar structures during a 14-day incubation period. Glands then were fixed in 10% buffered formalin and stained with alum carmine. Incidence of lesion formation (percentage of glands per group with mammary lesions) was recorded, and percent inhibition was calculated by comparison with the DMBA control group that was not treated with test sample. Active samples induce 60% inhibition, based on historical controls.

Where [7] appears, read: HL-60, 4-day incubation, NBT-reduction, read-out: induction of differentiation (EC50).
Where [8] appears, read: Homo sapiens, HL-60, 96 h, read-out: induction of differentiation (EC50, μM).

As for `C=C1/C(=C\C=C2/CCC[C@]3(C)[C@@H]([C@H](C)CCCC(C)(C)O)CC[C@@H]23)C[C@@H](O)C[C@@H]1O` [1α, 25-dihydroxyvitamin D3, reference compound], the EC50 in data set [1] (setting [7]) is 0.01 µM.

Regarding `C[C@@]1(CO)[C@H](O)CC[C@@]2(C)[C@H]1CC[C@H]1C[C@@H]3C[C@@]12CC[C@]3(O)CO` [aphidicolin, reference compound], in data set [1] (data not shown), the “maturation of HL-60 cells” value is listed as “incapable of inducing maturation”.

With `COc1cc([C@H]2Oc3c(OC)cc4ccc(=O)oc4c3O[C@@H]2CO)ccc1O` [cleomiscosin A], the “activity in the HL-60 test system” value in data set [2] was “inactive”.

Regarding `CC[C@@](C)(OC(C)=O)C(=O)O[C@H]1C(=O)O[C@@H]2C[C@H]3C(C)=CC(=O)[C@@H](O)[C@]3(C)[C@H]3[C@@H](O)[C@H](O)[C@@]4(C)OC[C@]32[C@@H]14` [compound 3, quassimarin], the IC50 at 4 days in data set [3] worked out at 130 ± 8 nM. For the same compound, the EC50 in data set [1] (setting [8]) stood at 0.09 ± 0.001 µM. For the same compound, in data set [4] (Homo sapiens), the IC50 was determined as 60 ± 5 nM. Further, the selectivity index in data set [4] (ratio of cytotoxic IC50 over antiproliferative IC50) was 2.2 ± 0.5.

Take `CC[C@@H](C)C(=O)O[C@H]1C(=O)O[C@@H]2C[C@H]3C(C)=CC(=O)[C@@H](O)[C@]3(C)[C@H]3[C@@H](O)[C@H](O)[C@@]4(C)OC[C@]32[C@@H]14` [compound 4, simalikalactone D]: in data set [3], the IC50 at 4 days was 200 ± 40 nM. The EC50 in data set [1] (setting [8]) is > 0.2 µM. The IC50 in data set [4] (Homo sapiens) was > 200 nM.

On to `CC[C@@](O)(CC(=O)O[C@@H]1C(=O)O[C@@H]2C[C@@H]3C(C)=CC(=O)[C@H](O)[C@]3(C)[C@H]3[C@]4(O)OC[C@]32[C@@H]1[C@@H](C)[C@H]4O)C(C)C` [compound 10, Peninsularinone], for which the values for the IC50 in data set [5] and in data set [4] were 13 ± 1 nM and 9 ± 1 nM, respectively. Further, the EC50 in data set [1] (setting [7]) worked out at 0.019 ± 0.0004 µM. In addition, the “activity in the MMOC model” value in data set [6] (at concentrations as high as 2 mM) is “inactive”. The “% inhibition of DMBA-induced preneoplastic lesion formation” value (“% inhibition” for short) in data set [6] is 44%.

Take `CC1=CC(=O)[C@@H](O)[C@]2(C)[C@H]3[C@]4(O)OC[C@]35[C@H]([C@@H](C)[C@H]4O)[C@@H](O)C(=O)O[C@@H]5C[C@@H]12` [compound 24, glaucarubolone]: the IC50 in data set [5] came to 1300 ± 200 nM; in data set [4], 400 ± 30 nM. In addition, the concentration for a half-maximal effect (EC50) in data set [1] (setting [7]) was ~1.3 µM.

`CC[C@](C)(O)C(=O)O[C@H]1C(=O)O[C@@H]2C[C@H]3C(C)=CC(=O)[C@@H](O)[C@]3(C)[C@H]3[C@@]4(O)OC[C@]32[C@@H]1[C@@H](C)[C@H]4O` [compound 25, glaucarubinone]: the figures for the IC50 in data set [5] and in data set [4] were 1000 ± 100 nM and 500 ± 90 nM, respectively. The EC50 in data set [1] (setting [7]) is 1.8 ± 0.09 µM.

On to `CC1=CC(=O)[C@@H](O)[C@]2(C)[C@H]3[C@@]4(O)OC[C@@]35[C@@H](C[C@@H]12)OC(=O)C[C@H]5[C@@H](C)[C@H]4O` [compound 26, chaparrinone], for which the IC50 in data set [5] is 5000 ± 300 nM; in data set [4] it was 1200 ± 200 nM. The EC50 in data set [1] (setting [7]) was ~2.4 µM. For the same compound, in data set [6], the “% inhibition” value came out at 25%.

In the case of bruceoside B, the “activity in the HL-60 test system” value in data set [2] was “inactive”.

Take samaderin B [compound 48]: the IC50 in data set [5] is > 2000 nM; in data set [4] it was 400 ± 50 nM. Besides, the EC50 in data set [1] (setting [7]) is 1 ± 0.02 µM. Besides, in data set [6], the “% inhibition” value worked out at 0%.

Turning to yadanziolide C [compound 5], the IC50 in data set [5] is > 10000 nM; in data set [4], 1500 ± 80 nM. The EC50 in data set [1] (setting [7]) was determined as 10 ± 1.5 µM.
